These results are taken from ChEMBL document CHEMBL1201862, “PubChem BioAssay data set” (2004).

Test systems include SK-MEL-5; HL-60; HCT-116; SK-OV-3; CCRF-CEM; SF-295; SK-MEL-28; SN12C; SF-268; UO-31; LOX IMVI; KM12; HCT-15; A498; NCI-H226; SR; NCI-H522.
Holding throughout (test): inhibition of tumour cell growth, NCI panel, 48 h

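Five concentrations, 48 hours, 96-well plates. Here, GI50 denotes the concentration required for 50% inhibition of growth.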 Active and inactive are the calls of the source. Rule as the data show it: active = GI50 up to about 1.1 µM and inactive = higher.

Turning to `N=C(N)NNC(=O)CCCCCCCC(=O)NNC(=N)N`, the GI50 in the assay with SK-MEL-5, with HL-60, with HCT-116, in the assay on SK-OV-3, in the assay on CCRF-CEM and in the assay with SF-295 was > 100 µM (inactive) each time. In addition, the GI50 in the assay with SK-MEL-28, with SN12C, in the assay with SF-268, with UO-31, in the assay on LOX IMVI and with KM12 was > 100 µM (inactive) each time. In addition, the GI50 in the assay on HCT-15 was 17.9 µM; in the assay with A498 it was > 100 µM (inactive).
For `CCCCCCCCCCCC(=O)c1c(O)cccc1O`, the GI50 was 13.6 µM (inactive) in the assay with SK-MEL-5; 19.3 µM (inactive) in the assay with NCI-H226; 19.9 µM (inactive) in the assay with HL-60; 18 µM (inactive) in the assay with HCT-116; 30.8 µM (inactive) in the assay on SK-OV-3; 24.5 µM (inactive) in the assay on CCRF-CEM. The GI50 was 17.2 µM (inactive) in the assay with SF-295; 17.8 µM (inactive) with SK-MEL-28; 21 µM (inactive) with SR; 19 µM (inactive) with SN12C; 16.3 µM (inactive) in the assay on SF-268; 18.7 µM (inactive) in the assay with NCI-H522. Further, the GI50 is 16.5 µM (inactive) with UO-31, 18.8 µM (inactive) in the assay on LOX IMVI, 16 µM (inactive) with KM12 and 18.6 µM in the assay on HCT-15.
In the case of `CCOC(=O)C1=C(Nc2cccc3ccccc23)OCC1=O`, the GI50 with SK-MEL-5 was > 100 µM (inactive); in the assay with NCI-H226, > 100 µM (inactive); in the assay with HCT-116, > 100 µM (inactive); in the assay with SK-OV-3, > 100 µM (inactive); in the assay with CCRF-CEM, > 100 µM (inactive); with SK-MEL-28 it was 43.5 µM (inactive). Moreover, the GI50 in the assay with SR, in the assay with SN12C, with SF-268, in the assay with NCI-H522, with UO-31 and in the assay with KM12 was > 100 µM (inactive) each time. The GI50 with A498 was > 100 µM (inactive).
On to `COc1nc(OC)c2c(=O)oc(-c3ccccc3)cc2n1`, for which the GI50 with SK-MEL-5, in the assay on NCI-H226, with HCT-116, in the assay with SK-OV-3, with SF-295 and in the assay on SK-MEL-28 was > 100 µM (inactive) throughout. For the same compound, the GI50 in the assay with SR, in the assay with SN12C, in the assay on SF-268, in the assay on NCI-H522, with UO-31 and in the assay with KM12 was > 100 µM (inactive) each time. The GI50 with HCT-15 was more than 100 µM.
For `CN(C)CCNC(=O)c1cccc2ccc(-c3ccncc3)nc12`, the GI50 was 1.55 µM (inactive) in the assay with SK-MEL-5; 0.877 µM (active) in the assay with HL-60; 1.27 µM (inactive) with HCT-116; 2.22 µM (inactive) in the assay on SK-OV-3; 1.87 µM (inactive) with CCRF-CEM; 2.88 µM (inactive) in the assay with SF-295. Besides, the GI50 in the assay with SK-MEL-28 was 4.86 µM (inactive); in the assay on SN12C, 1.61 µM (inactive); in the assay with SF-268 it was 3.79 µM (inactive); in the assay on UO-31, 1.94 µM (inactive); in the assay on LOX IMVI it was 1.39 µM (inactive); with KM12, 3.67 µM (inactive). Also, the GI50 with HCT-15 was 1.44 µM; in the assay with A498 it was 1.3 µM (inactive).
With `O=C1C=CC(=O)c2nc3c(cc21)CCC3`, the GI50 with SK-MEL-5 is 20.4 µM (inactive); with HL-60, 4.67 µM (inactive); in the assay with HCT-116, 15.5 µM (inactive); in the assay on CCRF-CEM it was 5.61 µM (inactive); in the assay on SF-295, > 100 µM (inactive); in the assay on SK-MEL-28, 25.6 µM (inactive). Further, the GI50 with SR is 5.92 µM (inactive); in the assay on SN12C, 19.1 µM (inactive); in the assay with SF-268, 17.9 µM (inactive); in the assay with NCI-H522, 12.6 µM (inactive); in the assay with UO-31, > 100 µM (inactive); with LOX IMVI it was 15.3 µM (inactive). Besides, the GI50 with KM12 is > 100 µM (inactive).
For the compound `COc1ccc2c(c1)CC1NC2Cc2ccccc21` (stereo not given), the GI50 in the assay on SK-MEL-5, in the assay with HCT-116, in the assay with SK-OV-3, in the assay on CCRF-CEM, with SF-295 and with SK-MEL-28 was > 100 µM (inactive) in each case. Moreover, the GI50 in the assay with SN12C was > 10 µM (inactive); in the assay with SF-268, > 100 µM (inactive); in the assay with NCI-H522 it was > 100 µM (inactive); in the assay with UO-31 it was > 100 µM (inactive); in the assay with KM12 it was > 100 µM (inactive); with HCT-15 it was more than 100 µM. In addition, the GI50 with A498 was > 100 µM (inactive).
For the compound `CCC1c2cc3n(c(=O)c2COC1O)Cc1c-3nc2ccccc2c1Cl` (stereo not given), the GI50 in the assay with SK-MEL-5 was 29.4 µM (inactive); with NCI-H226, 39.6 µM (inactive); in the assay with HL-60, 26.9 µM (inactive); in the assay on HCT-116 it was 20.1 µM (inactive); in the assay with SK-OV-3, > 75 µM (inactive); in the assay on CCRF-CEM, 3.34 µM (inactive). The GI50 with SF-295 is 20.9 µM (inactive); in the assay on SK-MEL-28, > 100 µM (inactive); with SN12C, 10.1 µM (inactive); in the assay with SF-268, 14.4 µM (inactive); with NCI-H522, 5.05 µM (inactive); in the assay on UO-31 it was 19.4 µM (inactive). Further, the GI50 in the assay with LOX IMVI was 18.6 µM (inactive); in the assay on KM12, > 100 µM (inactive); in the assay on HCT-15, more than 94.2 µM; in the assay on A498, 52.6 µM (inactive).
As to `N=C(N)N/N=C/c1c[nH]c2ccccc12`, the GI50 in the assay with SK-MEL-5, in the assay on NCI-H226, with HL-60, with SK-OV-3, in the assay on CCRF-CEM and with SF-295 was > 100 µM (inactive) each time. Further, the GI50 is > 100 µM (inactive) in the assay on SK-MEL-28; > 100 µM (inactive) in the assay on SR; > 100 µM (inactive) with SN12C; > 100 µM (inactive) in the assay on SF-268; 74.6 µM (inactive) in the assay on NCI-H522; > 100 µM (inactive) in the assay with UO-31. The GI50 was > 100 µM (inactive) in the assay with LOX IMVI, > 100 µM (inactive) in the assay with KM12 and more than 100 µM in the assay with HCT-15.
Regarding `CCOC(=O)c1cc(/C=C/C(C)=C/C(=O)OC)oc1C`, the GI50 with HL-60, in the assay on HCT-116, with SK-OV-3, with CCRF-CEM, in the assay with SF-295 and in the assay on SK-MEL-28 was > 100 µM (inactive) each time. Further, the GI50 is > 100 µM (inactive) in the assay with SR; > 100 µM (inactive) in the assay with SF-268; 45.6 µM (inactive) in the assay on NCI-H522; > 100 µM (inactive) in the assay with UO-31; > 100 µM (inactive) in the assay with LOX IMVI; > 100 µM (inactive) with KM12. In addition, the GI50 with HCT-15 was more than 100 µM.
As to `[O-][S+]1Nc2c(Cl)cc(Cl)c3c(Cl)cc(Cl)c(c23)N1`, the GI50 in the assay on SK-MEL-5 is 37.8 µM (inactive); in the assay on NCI-H226, 25.1 µM (inactive); with HL-60, 34.2 µM (inactive); in the assay on HCT-116, 34.1 µM (inactive); in the assay on SK-OV-3, 45.7 µM (inactive); in the assay with CCRF-CEM, 31.6 µM (inactive). The GI50 in the assay on SF-295 was 53.1 µM (inactive); in the assay on SK-MEL-28, 62.8 µM (inactive); in the assay with SN12C, 34.6 µM (inactive); in the assay on SF-268 it was 34.6 µM (inactive); in the assay with NCI-H522, 22.7 µM (inactive); in the assay with UO-31, 51.8 µM (inactive). For the same compound, the GI50 is 32.8 µM (inactive) in the assay on LOX IMVI, 44.6 µM (inactive) in the assay with KM12, 32.1 µM in the assay on HCT-15 and 21.9 µM (inactive) with A498.
For `Nc1ccc(C(=O)NN2C(=O)C(Cl)C2c2ccc([N+](=O)[O-])cc2)cc1` (stereo not given), the GI50 with SK-MEL-5 is 15.5 µM (inactive); with NCI-H226, 17.2 µM (inactive); in the assay with HL-60 it was 1.92 µM (inactive); with HCT-116, 1.63 µM (inactive); with SK-OV-3, 14.1 µM (inactive); with CCRF-CEM, 3.54 µM (inactive). For the same compound, the GI50 in the assay with SF-295 was 13.8 µM (inactive); with SK-MEL-28, 7.23 µM (inactive); in the assay on SN12C, 14.8 µM (inactive); in the assay on SF-268, 1.99 µM (inactive); in the assay on NCI-H522 it was 1.73 µM (inactive); in the assay with UO-31, 15.6 µM (inactive). The GI50 in the assay with LOX IMVI is 1.74 µM (inactive); in the assay on KM12, 10.5 µM (inactive); in the assay on HCT-15, 8.05 µM; in the assay on A498 it was 20.8 µM (inactive).
For `Clc1ccc(C2=Nc3ccccc3SC(c3cccs3)C2)cc1` (stereo not given), the GI50 was 16.5 µM (inactive) in the assay with SK-MEL-5; 7.67 µM (inactive) with HCT-116; 16.8 µM (inactive) with SK-OV-3; 15 µM (inactive) in the assay with SF-295; 17.6 µM (inactive) with SK-MEL-28; 2.43 µM (inactive) with SR. For the same compound, the GI50 in the assay with SN12C is 15.6 µM (inactive); with SF-268 it was 16.3 µM (inactive); in the assay on NCI-H522, 18.1 µM (inactive); in the assay with UO-31 it was 13.6 µM (inactive); in the assay on LOX IMVI, 7.19 µM (inactive); in the assay with KM12, 10.7 µM (inactive). For the same compound, the values for the GI50 with HCT-15 and with A498 were 14 µM and 14.9 µM (inactive), respectively.
As for `CN(C)c1ccc(C(C=C2c3ccccc3Sc3ccccc32)=C(C#N)C#N)cc1`, the GI50 in the assay on SK-MEL-5 is > 100 µM (inactive); with HL-60 it was > 100 µM (inactive); in the assay on HCT-116 it was > 100 µM (inactive); in the assay with SK-OV-3, > 100 µM (inactive); in the assay with CCRF-CEM it was > 100 µM (inactive); with SF-295, 87.7 µM (inactive). Besides, the GI50 with SK-MEL-28 was > 100 µM (inactive); with SN12C, > 100 µM (inactive); in the assay on SF-268 it was > 100 µM (inactive); in the assay on UO-31, 82.8 µM (inactive); in the assay with LOX IMVI, 48.4 µM (inactive); with KM12, > 100 µM (inactive). Besides, the GI50 with HCT-15 was more than 100 µM; with A498, > 100 µM (inactive).
